From patent publication US20090239845A1, “PYRAZOLE COMPOUNDS AS PROSTAGLANDIN RECEPTORS LIGANDS” (priority 2005, published 2009)
Structures can show the parent of a compound that is named as a salt.

molecular target: T1, human prostanoid EP1 receptor (Homo sapiens, UniProt P34995); assay: Binding assay for the human prostanoid EP1 receptor (competition with [3H]-PGE2); conditions: negative logarithm10 of the IC50; competition with [3H]-PGE2, CHO-K1 cell membranes; averages of a number of experiments; read-out: pIC50 value (converted)
T1 construct: expressed in transfected cells; host or cells: CHO-K1 (membrane fraction)
T1 sequence (P34995 1-402): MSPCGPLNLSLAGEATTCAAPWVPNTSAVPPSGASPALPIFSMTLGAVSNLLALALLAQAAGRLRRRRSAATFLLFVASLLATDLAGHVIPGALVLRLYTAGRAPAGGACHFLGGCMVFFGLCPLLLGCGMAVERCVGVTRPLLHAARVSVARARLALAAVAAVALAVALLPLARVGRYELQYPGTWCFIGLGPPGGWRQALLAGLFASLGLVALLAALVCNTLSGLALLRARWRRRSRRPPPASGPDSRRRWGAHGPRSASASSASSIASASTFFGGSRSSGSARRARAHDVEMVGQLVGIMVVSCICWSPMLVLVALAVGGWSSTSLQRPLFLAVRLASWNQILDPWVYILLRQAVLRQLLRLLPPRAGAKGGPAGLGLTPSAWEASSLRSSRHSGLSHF
Method: Competition assay using [^3H]-PGE2.
Compound potencies are determined using a radioligand binding assay. In this assay compound potencies are determined from their ability to compete with tritiated prostaglandin E2 ([^3H]-PGE2) for binding to the human EP1 receptor.
This assay utilises Chinese hamster ovary-K1 (CHO-K1) cells into which a stable vector containing the EP1 cDNA has previously been transfected. Cells are cultured in suitable flasks containing culture medium such as DMEM:F-12 supplemented with 10% v/v foetal calf serum, 2 mM L-glutamine, 0.25 mg/ml geneticin, 10 μg/ml puromycin and 10 μM indomethacin.
Cells are detached from the culture flasks by incubation in calcium and magnesium free phosphate buffered saline containing 1 mM disodium ethylenediaminetetraacetic acid (Na2EDTA) and 10 μM indomethacin for 5 min. The cells are isolated by centrifugation at 250×g for 5mins and suspended in an ice cold buffer such as 50 mM Tris, 1 mM Na2EDTA, 140 mM NaCl, 10 μM indomethacin (pH 7.4). The cells are homogenised using a Polytron tissue disrupter (2×10s burst at full setting), centrifuged at 48,000×g for 20mins and the pellet containing the membrane fraction is washed (optional) three times by suspension and centrifugation at 48,000×g for 20mins. The final membrane pellet is suspended in an assay buffer such as 10 mM 2-[N-morpholino]ethanesulphonic acid, 1 mM Na2EDTA, 10 mM MgCl2 (pH 6). Aliquots are frozen at −80° C. until required.
For the binding assay the cell membranes, competing compounds and [^3H]-PGE2 (3 nM final assay concentration) are incubated in a final volume of 100 μl for 30 min at 30° C. All reagents are prepared in assay buffer. Reactions are terminated by rapid vacuum filtration over GF/B filters using a Brandell cell harvester. The filters are washed with ice cold assay buffer, dried and the radioactivity retained on the filters is measured by liquid scintillation counting in Packard TopCount scintillation counter.
The data are analysed using non linear curve fitting techniques to determine the concentration of compound producing 50% inhibition of specific binding (IC50).

| SMILES | IC50 |
| --- | --- |
| Cc1cc(-c2nc3ccncc3[nH]2)nn1Cc1cc(Cl)ccc1OCC(C)C [Example 373, 2-[1-({5-Chloro-2-[(2-methylpropyl)oxy]phenyl}methyl)-5-methyl-1H-pyrazol-3-yl]-1H-imidazo[4,5-c]pyridine hydrochloride] | ≤ 10 nM |
| Cc1cc(-c2nc3ccc(N(C)C)cc3[nH]2)nn1Cc1cc(Cl)ccc1OCC(C)C [Example 473, 2-[1-({5-Chloro-2-[(2-methylpropyl)oxy]phenyl}methyl)-5-methyl-1H-pyrazol-3-yl]-N,N-dimethyl-1H-benzimidazol-5-amine dihydrochloride] | ≤ 10 nM |
| Cc1cc(NC(=O)CC(C)(C)C)nn1Cc1cc(Cl)ccc1OCc1ccc(Cl)cc1F [Example 136, N-{1-[(5-Chloro-2-{[(4-chloro-2-fluorophenyl)methyl]oxy}phenyl)methyl]-5-methyl-1H-pyrazol-3-yl}-3,3-dimethylbutanamide] | ≤ 10 nM |
| Cc1cc(C(=O)Nc2ccc(CN3CCNC(=O)C3)cc2)nn1Cc1cc(Cl)ccc1OCC(C)C [Example 399, 1-({5-Chloro-2-[(2-methylpropyl)oxy]phenyl}methyl)-5-methyl-N-{4-[(3-oxo-1-piperazinyl)methyl]phenyl}-1H-pyrazole-3-carboxamide hydrochloride] | ≤ 10 nM |
| Cc1cc(C(=O)Nc2c(F)cccc2F)nn1Cc1cc(Br)ccc1OCc1ccc(F)cc1F [Example 319, 1-[(5-Bromo-2-{[(2,4-difluorophenyl)methyl]oxy}phenyl)methyl]-N-(2,6-difluorophenyl)-5-methyl-1H-pyrazole-3-carboxamide] | ≤ 10 nM |
| Cc1cc(C(=O)Nc2ccc(CN(C)C)cc2)nn1Cc1cc(Cl)ccc1OCC(C)C [Example 394, 1-({5-Chloro-2-[(2-methylpropyl)oxy]phenyl}methyl)-N-{4-[(dimethylamino)methyl]phenyl}-5-methyl-1H-pyrazole-3-carboxamide hydrochloride] | ≤ 10 nM |
| CCN1CCN(Cc2ccc3[nH]c(-c4cnn(Cc5cc(Cl)ccc5OCC(C)C)c4C)nc3c2)CC1 [Example 382, 2-[1-({5-Chloro-2-[(2-methylpropyl)oxy]phenyl}meth-yl)-5-methyl-1H-pyrazol-4-yl]-5-[(4-ethyl-1-piperazinyl)methyl]-1H-benzimidazole trihydrochloride] | ≤ 10 nM |
| Cc1cc(NC(=O)c2cccc3ccccc23)nn1Cc1cc(Cl)ccc1OCc1ccccc1 [Example 160, N-[1-({5-Chloro-2-[(phenylmethyl)oxy]phenyl}methyl)-5-methyl-1H-pyrazol-3-yl]-1-naphthalenecarboxamide] | ≤ 10 nM |
| Cc1cc(NC(=O)C2CCCCC2)nn1Cc1cc(Cl)ccc1OCc1ccccc1 [Example 110, N-[1-({5-Chloro-2-[(phenylmethyl)oxy]phenyl}methyl)-5-methyl-1H-pyrazol-3-yl]cyclohexanecarboxamide] | ≤ 10 nM |
| Cc1cc(C(=O)Nc2c(F)cccc2F)nn1Cc1cc(Br)ccc1OCc1ccccc1 [Example 313, 1-({5-Bromo-2-[(phenylmethyl)oxy]phenyl}methyl)-N-(2,6-difluorophenyl)-5-methyl-1H-pyrazole-3-carobxamide] | ≤ 10 nM |
| Cc1cc(C(=O)NS(=O)(=O)c2ccccc2)nn1Cc1cc(Cl)ccc1OCc1ccccc1 [Example 355, 1-({5-Chloro-2-[(phenylmethyl)oxy]phenyl}methyl)-5-methyl-N-(phenylsulfonyl)-1H-pyrazole-3-carboxamide] | ≤ 10 nM |
| Cc1cc(NC(=O)CC(C)(C)C)nn1Cc1cc(Cl)ccc1OCc1ccccc1 [Example 109, N-[1-({5-Chloro-2-[(phenylmethyl)oxy]phenyl}methyl)-5-methyl-1H-pyrazol-3-yl]-3,3-dimethylbutanamide] | ≤ 10 nM |
| Cc1cc(NC(=O)CC(C)(C)C)nn1Cc1cc(Cl)ccc1OCc1ccc(F)cc1F [Example 132, N-{1-[(5-Chloro-2-{[(2,4-difluorophenyl)methyl]oxy}phenyl)methyl]-5-methyl-1H-pyrazol-3-yl}-3,3-dimethylbutanamide] | ≤ 10 nM |
| Cc1cc(C(=O)Nc2ccc(CNC(C)C)cc2)nn1Cc1cc(Cl)ccc1OCC(C)C [Example 395, 1-({5-Chloro-2-[(2-methylpropyl)oxy]phenyl}methyl)-5-methyl-N-(4-{[(1-methylethyl)amino]methyl}phenyl)-1H-pyrazole-3-carboxamide hydrochloride] | ≤ 10 nM |
| CNCc1ccc(NC(=O)c2cc(C)n(Cc3cc(Cl)ccc3OCC(C)C)n2)cc1 [Example 392, 1-({5-Chloro-2-[(2-methylpropyl)oxy]phenyl}methyl)-5-methyl-N-{4-[(methylamino)methyl]phenyl}-1H-pyrazole-3-carboxamide hydrochloride] | ≤ 10 nM |
| Cc1noc(C)c1S(=O)(=O)NC(=O)c1cc(C)n(Cc2cc(Cl)ccc2OCc2ccccc2)n1 [Example 356, 1-({5-Chloro-2-[(phenylmethyl)oxy]phenyl}methyl)-N-[(3,5-dimethyl-4-isoxazolyl)sulfonyl]-5-methyl-1H-pyrazole-3-carboxamide] | ≤ 10 nM |
| Cc1cc(NC(=O)Cc2ccccn2)nn1Cc1cc(Cl)ccc1OCc1ccc(Cl)cc1F [Example 118, N-{1-[(5-Chloro-2-{[(4-chloro-2-fluorophenyl)methyl]oxy}phenyl)methyl]-5-methyl-1H-pyrazol-3-yl}-2-(2-pyridinyl)acetamide] | ≤ 10 nM |

molecular target: T2, human EP1 receptor (Homo sapiens, UniProt P34995); assay: human EP1 calcium mobilisation assay; type: cell-based; conditions: negative logarithm10 of the antagonist dissociation constant; CHO-K1 cells, PGE2; free bases or sodium salts; averages of a number of experiments; read-out: functional pKi value (converted)
T2 construct: expressed in transfected cells; host or cells: CHO-K1
T2 sequence (P34995 1-402): T1 sequence (P34995 1-402)
Method: Briefly, the antagonist properties of compounds are assessed by their ability to inhibit the mobilisation of intracellular calcium ([Ca^2+]i) in response to activation of EP1 or EP3 receptors by the natural agonist hormone prostaglandin E2 (PGE2). Increasing concentrations of antagonist reduce the amount of calcium that a given concentration of PGE2 can mobilise. The net effect is to displace the PGE2 concentration-effect curve to higher concentrations of PGE2. The amount of calcium produced is assessed using a calcium-sensitive fluorescent dye such as Fluo-4, AM and a suitable instrument such as a Fluorimetric Imaging Plate Reader (FLIPR). Increasing amounts of [Ca^2+]i produced by receptor activation increase the amount of fluorescence produced by the dye and give rise to an increasing signal. The signal may be detected using the FLIPR instrument and the data generated may be analysed with suitable curve-fitting software.
The human EP1 or EP3 calcium mobilisation assay (hereafter referred to as ‘the calcium assay’) utilises Chinese hamster ovary-K1 (CHO-K1) cells into which a stable (pCIN; BioTechniques 20 (1996): 102-110) vector containing either EP1 or EP3 cDNA has previously been transfected. Cells are cultured in suitable flasks containing culture medium such as DMEM:F-12 supplemented with 10% v/v foetal calf serum, 2 mM L-glutamine, 0.25 mg/ml geneticin, 100 μM flurbiprofen and 10 μg/ml puromycin.
For assay, cells are harvested using a proprietary reagent that dislodges cells such as Versene. Cells are re-suspended in a suitable quantity of fresh culture media for introduction into a 384-well plate. Following incubation for 24 hours at 37° C. the culture media is replaced with a medium containing Fluo-4 and the detergent pluronic acid, and a further incubation takes place. Concentrations of compounds are then added to the plate in order to construct concentration-effect curves. This may be performed on the FLIPR in order to assess the agonist properties of the compounds. Concentrations of PGE2 are then added to the plate in order to assess the antagonist properties of the compounds.
The data so generated may be analysed by means of a computerised curve-fitting routine. The concentration of compound that elicits a half-maximal inhibition of the calcium mobilisation induced by PGE2 (plC50) may then be estimated.

| SMILES | Ki |
| --- | --- |
| Cc1cc(-c2nc3nccnc3[nH]2)nn1Cc1cc(Cl)ccc1OCC(C)C [Example 371, 2-[1-({5-Chloro-2-[(2-methylpropyl)oxy]phenyl}methyl)-5-methyl-1H-pyrazol-3-yl]-1H-imidazo[4,5-b]pyrazine hydrochloride] | > 1000 nM |
| Cc1cc(OC(=O)NC2CCCCC2)nn1Cc1cc(Cl)ccc1OCC(C)C [Example 51, 1-({5-Chloro-2-[(2-methylpropyl)oxy]phenyl}methyl)-5-methyl-1H-pyrazol-3-yl cyclohexylcarbamate] | > 1000 nM |
| Cc1cc(NC(=O)c2c(F)cc(CNC(C)C)cc2F)nn1Cc1cc(Cl)ccc1OCC(C)C [Example 440, N-[1-({5-chloro-2-[(2-methylpropyl)oxy]phenyl}methyl)-5-methyl-1H-pyrazol-3-yl]-2,6-difluoro-4-{[(1-methylethyl)amino]methyl}benzamide hydrochloride] | > 1000 nM |
| CC(=O)Nc1cc(C)n(Cc2cc(Cl)ccc2OCc2ccccc2)n1 [Example 104, N-[1-({5-Chloro-2-[(phenylmethyl)oxy]phenyl}methyl)-5-methyl-1H-pyrazol-3-yl]acetamide] | > 1000 nM |
